Source: US6518290B1, “Substituted oxazoles and thiazoles derivatives as HPPAr alpha activators” (priority 1999, dated 2003)

Tests used:
Type in all cases: cell-based
human PPAR alpha = target: T1, human PPAR alpha (Homo sapiens, UniProt Q07869); assay: PPAR transient transfection (transactivation) assay in CV-1 cells, hPPAR alpha; settings: PPAR LBD-GAL4 chimera, SPAP reporter, 24 h with compound, read-out: human αEC50
T1 construct: expressed in transfected cells; host or cells: CV-1 cells
T1 sequence (Q07869 239-466 limits assumed): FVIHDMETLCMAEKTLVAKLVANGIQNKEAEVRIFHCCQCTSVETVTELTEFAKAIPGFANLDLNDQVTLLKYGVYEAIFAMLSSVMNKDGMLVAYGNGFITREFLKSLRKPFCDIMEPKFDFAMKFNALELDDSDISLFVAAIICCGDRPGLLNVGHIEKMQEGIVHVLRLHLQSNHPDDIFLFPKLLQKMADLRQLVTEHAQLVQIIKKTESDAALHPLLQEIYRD
Source text: Compounds were screened for functional potency in transient transfection assays in CV-1 cells for their ability to activate the PPAR subtypes (transactivation assay). A previously established chimeric receptor system was utilized to allow comparison of the relative transcriptional activity of the receptor subtypes on the same target gene and to prevent endogenous receptor activation from complicating the interpretation of results. See, for example, Lehmann, J. M.; Moore, L. B.; Smith-Oliver, T. A.; Wilkison, W. O.; Willson, T. M.; Kliewer, S. A., An antidiabetic thiazolidinedione is a high affinity ligand for peroxisome proliferator-activated receptor γ (PPARγ), J. Biol. Chem., 1995, 270, 12953-6. The ligand binding domains for murine and human PPAR alpha, PPAR gamma, and PPAR delta were each fused to the yeast transcription factor GAL4 DNA binding domain. CV-1 cells were transiently transfected with expression vectors for the respective PPAR chimera along with a reporter construct containing five copies of the GAL4 DNA binding site driving expression of secreted placental alkaline phosphatase (SPAP) and β-galactosidase. After 16 h, the medium was exchanged to DME medium supplemented with 10% delipidated fetal calf serum and the test compound at the appropriate concentration. After an additional 24 h, cell extracts were prepared and assayed for alkaline phosphatase and β-galactosidase activity. […] Rosiglitazone (BRL 49653) was used as a positive control in the hPPAR gamma assay. The positive control in the hPPAR alpha assays was 2-(2-methyl-3-[3-{3-(4-cyclohexylamino)-[6-(4-fluorophenylpiperazin-1-yl)][1,3,5]triazin-2-ylamino}propyl]phenylthio)-2-methylpropionic acid. The positive control for PPAR delta assays was 2-{2-methyl-4-[({4-methyl-2-{trifluoromethyl)phenyl]-1,3-thiazol-5-yl}methyl)sulfanyl]phenoxy}acetic acid.

human PPAR delta = target: T2, human PPAR delta (Homo sapiens, UniProt Q03181); assay: PPAR transient transfection (transactivation) assay in CV-1 cells, PPAR delta; settings: PPAR LBD-GAL4 chimera, SPAP reporter, 24 h with compound, read-out: human δEC50
T2 construct: expressed in transfected cells; host or cells: CV-1 cells
T2 sequence (Q03181 211-439 limits assumed): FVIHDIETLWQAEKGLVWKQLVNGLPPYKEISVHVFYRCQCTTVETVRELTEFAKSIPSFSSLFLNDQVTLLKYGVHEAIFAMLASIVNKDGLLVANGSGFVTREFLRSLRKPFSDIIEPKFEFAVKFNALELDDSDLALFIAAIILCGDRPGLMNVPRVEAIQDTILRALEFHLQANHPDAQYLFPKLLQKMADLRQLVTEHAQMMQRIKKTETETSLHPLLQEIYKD
Source text: (§1) Compounds were screened for functional potency in transient transfection assays in CV-1 cells for their ability to activate the PPAR subtypes (transactivation assay). A previously established chimeric receptor system was utilized to allow comparison of the relative transcriptional activity of the receptor subtypes on the same target gene and to prevent endogenous receptor activation from complicating the interpretation of results. See, for example, Lehmann, J. M.; Moore, L. B.; Smith-Oliver, T. A.; Wilkison, W. O.; Willson, T. M.; Kliewer, S. A., An antidiabetic thiazolidinedione is a high affinity ligand for peroxisome proliferator-activated receptor γ (PPARγ), J. Biol. Chem., 1995, 270, 12953-6. The ligand binding domains for murine and human PPAR alpha, PPAR gamma, and PPAR delta were each fused to the yeast transcription factor GAL4 DNA binding domain. CV-1 cells were transiently transfected with expression vectors for the respective PPAR chimera along with a reporter construct containing five copies of the GAL4 DNA binding site driving expression of secreted placental alkaline phosphatase (SPAP) and β-galactosidase. After 16 h, the medium was exchanged to DME medium supplemented with 10% delipidated fetal calf serum and the test compound at the appropriate concentration. After an additional 24 h, cell extracts were prepared and assayed for alkaline phosphatase and β-galactosidase activity. Alkaline phosphatase activity was corrected for transfection efficiency using the β-galactosidase activity as an internal standard (see, for example, Kliewer, S. A., et. al. Cell 83, 813-819 (1995)). Rosiglitazone (BRL 49653) was used as a positive control in the hPPAR gamma assay. The positive control in the hPPAR alpha assays was 2-(2-methyl-3-[3-{3-(4-cyclohexylamino)-[6-(4-fluorophenylpiperazin-1-yl)][1,3,5]triazin-2-ylamino}propyl]phenylthio)-2-methylpropionic acid. The positive control for PPAR delta assays was 2-{2-methyl-4-[({4-methyl-2-{trifluoromethyl)phenyl]-1,3-thiazol-5-yl}methyl)sulfanyl]phenoxy}acetic acid.

human PPAR gamma = target: T3, human PPAR gamma (Homo sapiens, UniProt P37231); assay: PPAR transient transfection (transactivation) assay in CV-1 cells, hPPAR gamma; settings: PPAR LBD-GAL4 chimera, SPAP reporter, 24 h with compound, read-out: human γEC50
T3 construct: expressed in transfected cells; host or cells: CV-1 cells
T3 sequence (P37231 238-503 limits assumed): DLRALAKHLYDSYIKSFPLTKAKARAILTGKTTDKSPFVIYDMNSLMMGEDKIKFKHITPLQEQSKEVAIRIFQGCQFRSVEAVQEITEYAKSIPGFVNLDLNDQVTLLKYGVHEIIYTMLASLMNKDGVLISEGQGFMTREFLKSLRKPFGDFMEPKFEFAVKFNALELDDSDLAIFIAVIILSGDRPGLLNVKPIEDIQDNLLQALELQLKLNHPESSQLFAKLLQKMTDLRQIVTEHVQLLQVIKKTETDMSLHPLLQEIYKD
Source text: as §1

| Structure (SMILES) | EC50 (human PPAR alpha) [nM] | EC50 (human PPAR delta) [nM] | EC50 (human PPAR gamma) [nM] |
| --- | --- | --- | --- |
| Cc1nc(-c2ccc(C(C)C)cc2)sc1C(=O)NCc1ccc(OC(C)(C)C(=O)O)cc1 [Example 15, 2-Methyl-2-[4-{[(4-methyl-2-[4-isopropylphenyl]-thiazol-5-ylcarbonyl)amino]methyl}phenoxy]propionic Acid] | 1 | 4370 | 2640 |
| Cc1nc(-c2ccc([N+](=O)[O-])cc2)sc1C(=O)NCc1ccc(OC(C)(C)C(=O)O)cc1 [Example 17, 2-Methyl-2-[4-{[(4-methyl-2-[4-nitrophenyl]-thiazol-5-ylcarbonyl)amino]methyl}phenoxy]propionic Acid] | 27 | ≥ 10000 | ≥ 10000 |
| Cc1nc(-c2ccc(Cl)c(Cl)c2)sc1C(=O)NCc1ccc(OC(C)(C)C(=O)O)cc1 [Example 21, 2-Methyl-2-[4-{[(4-methyl-2-[3,4-dichlorophenyl]-thiazol-5-ylcarbonyl)amino]methyl}phenoxy]propionic Acid] | 28 | ≥ 10000 | ≥ 10000 |
| Cc1nc(-c2ccc(Br)cc2)sc1C(=O)NCc1ccc(OC(C)(C)C(=O)O)cc1 [Example 25, 2-Methyl-2-[4-{[(4-methyl-2-[4-bromophenyl]-thiazol-5-ylcarbonyl)amino]methyl}phenoxy]propionic Acid] | 10 | 2700 | ≥ 10000 |
| CCc1ccc(-c2nc(C)c(C(=O)NCc3ccc(OC(C)(C)C(=O)O)cc3)s2)cc1 [Example 27, 2-Methyl-2-[4-{[(4-methyl-2-[4-ethylphenyl]-thiazol-5-ylcarbonyl)amino]methyl}phenoxy]propionic Acid] | 2 | 4080 | 8820 |
| Cc1nc(-c2ccccc2)sc1C(=O)NCc1ccc(OC(C)(C)C(=O)O)cc1 [Example 29, 2-Methyl-2-[4-{[(4-methyl-2-phenylthiazol-5-ylcarbonyl)amino]methyl}phenoxy]propionic Acid] | 122 | ≥ 10000 | ≥ 10000 |
| COc1ccc(-c2nc(C)c(C(=O)NCc3ccc(OC(C)(C)C(=O)O)cc3)s2)cc1 [Example 37, 2-Methyl-2-[4-{[(4-methyl-2-[4-methoxyphenyl]-thiazol-5-ylcarbonyl)amino]methyl}phenoxy]propionic Acid] | 20 | ≥ 10000 | ≥ 10000 |
| C#Cc1ccc(-c2nc(C)c(C(=O)NCc3ccc(OC(C)(C)C(=O)O)cc3)s2)cc1 [Example 39, 2-Methyl-2-[4-{[(4-methyl-2-[4-acetylenylphenyl]-thiazol-5-ylcarbonyl)amino]methyl}phenoxy]propionic Acid] | 36 | 2480 | ≥ 10000 |

Now from value to compound:

| EC50 (human PPAR alpha) [nM] | EC50 (human PPAR delta) [nM] | EC50 (human PPAR gamma) [nM] | Structure (SMILES) |
| --- | --- | --- | --- |
| 17 | ≥ 10000 | ≥ 10000 | CCOC(=O)C(C)(C)Oc1ccc(CNC(=O)c2sc(-c3ccc(C(F)(F)F)cc3)nc2C)cc1 [Example 1, 2-Methyl-2-[4-{[(4-methyl-2-[4-trifluoromethylphenyl]thiazol-5-ylcarbonyl)amino]methyl}phenoxy]propionic Acid Ethyl Ester] |
| – | 2950 | ≥ 10000 | Cc1nc(-c2ccc(C(F)(F)F)cc2)sc1C(=O)NCc1ccc(OC(C)(C)C(=O)O)cc1 [Example 2, 2-Methyl-2-[4-{[(4-methyl-2-[4-trifluoromethylphenyl]-thiazol-5-ylcarbonyl)amino]methyl}phenoxy]propionic Acid] |
| 230 | ≥ 10000 | ≥ 10000 | Cc1nc(-c2ccc(C(F)(F)F)cc2)sc1C(=O)N(C)Cc1ccc(OC(C)(C)C(=O)O)cc1 [Example 6, N-Methyl-2-methyl-2-[4-{[(4-methyl-2-[4-trifluoromethylphenyl]-thiazol-5-ylcarbonyl)amino]methyl}phenoxy]propionic Acid] |
| 108 | ≥ 10000 | ≥ 10000 | Cc1nc(-c2ccc(C(F)(F)F)cc2)sc1C(=O)NCCc1ccc(OC(C)(C)C(=O)O)cc1 [Example 10, 2-Methyl-2-[4-{[(4-methyl-2-[4-trifluoromethylphenyl]-thiazol-5-ylcarbonyl)amino]ethyl}phenoxy]propionic Acid] |
| 5 | ≥ 10000 | 850 | Cc1nc(-c2ccc(C(C)(C)C)cc2)sc1C(=O)NCc1ccc(OC(C)(C)C(=O)O)cc1 [Example 13, 2-Methyl-2-[4-{[(4-methyl-2-[4-tertbutylphenyl]-thiazol-5-ylcarbonyl)amino]methyl}phenoxy]propionic Acid] |
| 7 | 9190 | ≥ 10000 | Cc1nc(-c2ccc(C(F)(F)F)c(F)c2)sc1C(=O)NCc1ccc(OC(C)(C)C(=O)O)cc1 [Example 23, 2-Methyl-2-[4-{[(4-methyl-2-[3-fluoro-4-trifluoromethylphenyl]-thiazol-5-ylcarbonyl)amino]methyl}phenoxy]propionic Acid] |
| 14 | 5350 | ≥ 10000 | Cc1nc(-c2ccc(Cl)cc2)sc1C(=O)NCc1ccc(OC(C)(C)C(=O)O)cc1 [Example 33, 2-Methyl-2-[4-{[(4-methyl-2-[4-chlorophenyl]-thiazol-5-ylcarbonyl)amino]methyl}phenoxy]propionic Acid] |
| 4 | 4590 | ≥ 10000 | Cc1nc(-c2ccc(OC(F)(F)F)cc2)sc1C(=O)NCc1ccc(OC(C)(C)C(=O)O)cc1 [Example 35, 2-Methyl-2-[4-{[(4-methyl-2-[4-trifluoromethoxyphenyl]-thiazol-5-ylcarbonyl)amino]methyl}phenoxy]propionic Acid] |
| 5 | ≥ 10000 | 832 | CC(C)(Oc1ccc(CNC(=O)c2sc(-c3ccc(C(F)(F)F)cc3)nc2C(F)(F)F)cc1)C(=O)O [Example 41, 2-Methyl-2-[4-{[(4-trifluoromethyl-2-[4-trifluoromethylphenyl]-thiazol-5-ylcarbonyl)amino]methyl}phenoxy]propionic Acid] |
| 400 | 1640 | ≥ 10000 | Cc1nc(-c2ccc(C(F)(F)F)cc2)oc1C(=O)NCc1ccc(OC(C)(C)C(=O)O)cc1 [Example 45, 2-Methyl-2-[4-{[(4-methyl-2-[4-trifluoromethylphenyl]-oxazol-5-ylcarbonyl)amino]methyl}phenoxy]propionic Acid] |
